The results in this text go back to article PMC2951136 (Journal of neurochemistry, 2009).

The test addresses human dopamine transporter (hDAT) (Homo sapiens, UniProt Q01959). The experiment in a line: live-cell confocal imaging of ASP+ accumulation in hDAT-transfected EM4 cells. Format: cell-based.

human dopamine transporter (hDAT), sequence (Q01959 whole entry): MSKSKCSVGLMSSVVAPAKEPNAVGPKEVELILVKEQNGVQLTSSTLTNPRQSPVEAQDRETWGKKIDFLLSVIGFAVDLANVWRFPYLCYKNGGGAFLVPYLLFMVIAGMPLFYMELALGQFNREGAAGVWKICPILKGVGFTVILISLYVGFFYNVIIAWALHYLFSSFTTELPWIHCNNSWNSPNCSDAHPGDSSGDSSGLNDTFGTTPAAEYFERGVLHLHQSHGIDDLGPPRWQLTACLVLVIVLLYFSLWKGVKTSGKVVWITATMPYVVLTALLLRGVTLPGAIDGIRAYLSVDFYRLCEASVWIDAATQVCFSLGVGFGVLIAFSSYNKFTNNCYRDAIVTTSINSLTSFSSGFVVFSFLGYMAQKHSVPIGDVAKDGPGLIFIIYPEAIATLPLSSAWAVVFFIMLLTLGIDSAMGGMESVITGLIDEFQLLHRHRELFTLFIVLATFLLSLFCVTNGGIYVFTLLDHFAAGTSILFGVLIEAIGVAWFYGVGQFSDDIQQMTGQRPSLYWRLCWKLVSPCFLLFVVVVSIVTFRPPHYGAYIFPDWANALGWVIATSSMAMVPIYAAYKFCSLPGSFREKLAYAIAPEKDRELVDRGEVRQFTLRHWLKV

Turning to `CCCCC/C=C\C/C=C\C/C=C\C/C=C\CCCC(=O)NCCO` [AEA, anandamide], half-maximal inhibition (IC50) was put at 3.2 ± 0.8 µM.
